From paper PMC3496871 (Molecular bioSystems, 2012)
Entries after “also recorded” stand apart in the source; their conditions may differ.

Key:
[1] = biological target: T1, Eis_Msm (Mycolicibacterium smegmatis, UniProt A0QY29); test: UV-Vis assay of Eis_Msm activity against KAN and 6′-glycinyl-KAN; details: AG 0.1 mM, AcCoA 0.5 mM, Eis 0.5 μM
[2] = biological target: T2, Eis_Mtb (Mycobacterium tuberculosis, UniProt P9WFK7); type: biochemical; details: AG 0.1 mM, AcCoA 0.5 mM, Eis 0.5 μM
[3] = biological target: T3, Eis_Ava (Trichormus variabilis (Anabaena variabilis), UniProt Q3M362); test: UV-Vis assay of Eis_Ava activity against KAN and 6′-glycinyl-KAN; details: AG 0.1 mM, AcCoA 0.5 mM, Eis 0.5 μM
[4] = biological target: T3, Eis_Ava; test: Number of acetylations of AGs by Eis_Ava; type: biochemical; details: mass spectrometry; AG 0.67 mM, AcCoA 6.7 mM, Eis_Ava 10 μM, overnight at rt
[5] = biological target: T2, Eis_Mtb; details: cited from earlier work
[6] = tested on: Eis_Msm; details: cited from earlier work
[7] = biological target: T3, Eis_Ava; test: Acyl-CoA cosubstrate profile of Eis_Ava; type: biochemical; details: 6 acyl-CoA cosubstrates tested
[8] = biological target: T2, Eis_Mtb; details: transfer onto a few AGs; cited from earlier work
[9] = biological target: T3, Eis_Ava; test: Regio-specificity of NEA acetylation by Eis_Ava; type: biochemical
[10] = biological target: T2, Eis_Mtb; type: biochemical; details: 500 μM AcCoA, apparent
[11] = biological target: T1, Eis_Msm; type: biochemical; details: read-out: IC50 Eis_Msm; NEO acetylation
[12] = biological target: T3, Eis_Ava; test: biochemical; type: biochemical
[13] = tested on: Eis_Ava; test: biochemical; type: biochemical
[14] = tested on: NC[C@@H]1O[C@H](O[C@H]2[C@@H](O)[C@H](O[C@@H]3[C@@H](O)[C@H](N)C[C@H](N)[C@H]3O[C@H]3O[C@H](CN)[C@@H](O)[C@H](O)[C@H]3N)O[C@@H]2CO)[C@H](N)[C@@H](O)[C@@H]1O; test: purified protein, by the assay type; type: biochemical, Anabaena variabilis; details: other: Eis_Ava […], 500 μM AcCoA, apparent, pH 7.5
[15] = tested on: NC[C@H]1O[C@H](O[C@H]2[C@H](O)[C@@H](O)[C@H](N)C[C@@H]2N)[C@H](N)[C@@H](O)[C@@H]1O; test: purified protein, by the assay type; type: biochemical, Anabaena variabilis; details: other: Eis_Ava […], 500 μM AcCoA, apparent, pH 7.5
[16] = tested on: CN[C@@H]1[C@@H](O[C@H]2O[C@H](CO)[C@@H](N)[C@H](O)[C@H]2O)OC2C[C@@H](N)[C@@H](O[C@H]3[C@H](O)[C@@H](O)[C@H](N)C[C@@H]3N)OC2[C@@H]1O; test: purified protein, by the assay type; type: biochemical, Anabaena variabilis; details: other: Eis_Ava […], 500 μM AcCoA, apparent, pH 7.5
[17] = tested on: NC[C@@H]1O[C@H](O[C@H]2[C@@H](O)[C@H](O[C@@H]3[C@@H](O)[C@H](N)C[C@H](N)[C@H]3O[C@H]3O[C@H](CO)[C@@H](O)[C@H](O)[C@H]3N)O[C@@H]2CO)[C@H](N)[C@@H](O)[C@@H]1O; test: purified protein, by the assay type; type: biochemical, Anabaena variabilis; details: other: Eis_Ava […], 500 μM AcCoA, apparent, pH 7.5
[18] = tested on: NC[C@@H]1O[C@H](O[C@H]2[C@@H](O)[C@H](O[C@@H]3[C@@H](O)[C@H](N)C[C@H](N)[C@H]3O[C@H]3O[C@H](CN)[C@@H](O)[C@H](O)[C@H]3N)O[C@@H]2CO)[C@H](N)[C@@H](O)[C@@H]1O; test: purified protein, by the assay type; type: biochemical, Mycobacterium smegmatis; details: other: Eis_Msm […], 500 μM AcCoA, apparent, pH 7.5
[19] = tested on: NC[C@H]1O[C@H](O[C@H]2[C@H](O)[C@@H](O)[C@H](N)C[C@@H]2N)[C@H](N)[C@@H](O)[C@@H]1O; test: purified protein, by the assay type; type: biochemical, Mycobacterium smegmatis; details: other: Eis_Msm […], 500 μM AcCoA, apparent, pH 7.5
[20] = tested on: CN[C@@H]1[C@@H](O[C@H]2O[C@H](CO)[C@@H](N)[C@H](O)[C@H]2O)OC2C[C@@H](N)[C@@H](O[C@H]3[C@H](O)[C@@H](O)[C@H](N)C[C@@H]3N)OC2[C@@H]1O; test: purified protein, by the assay type; type: biochemical, Mycobacterium smegmatis; details: other: Eis_Msm […], 500 μM AcCoA, apparent, pH 7.5
[21] = tested on: NC[C@@H]1O[C@H](O[C@H]2[C@@H](O)[C@H](O[C@@H]3[C@@H](O)[C@H](N)C[C@H](N)[C@H]3O[C@H]3O[C@H](CO)[C@@H](O)[C@H](O)[C@H]3N)O[C@@H]2CO)[C@H](N)[C@@H](O)[C@@H]1O; test: purified protein, by the assay type; type: biochemical, Mycobacterium smegmatis; details: other: Eis_Msm […], 500 μM AcCoA, apparent, pH 7.5
[22] = tested on: NC[C@H]1O[C@H](O[C@H]2[C@H](O)[C@@H](O)[C@H](N)C[C@@H]2N)[C@H](N)[C@@H](O)[C@@H]1O; test: purified protein, by the assay type; type: biochemical, Mycobacterium tuberculosis; details: other: Eis_Mtb […], 500 μM AcCoA, apparent, pH 7.5

T2 sequence (P9WFK7 whole entry): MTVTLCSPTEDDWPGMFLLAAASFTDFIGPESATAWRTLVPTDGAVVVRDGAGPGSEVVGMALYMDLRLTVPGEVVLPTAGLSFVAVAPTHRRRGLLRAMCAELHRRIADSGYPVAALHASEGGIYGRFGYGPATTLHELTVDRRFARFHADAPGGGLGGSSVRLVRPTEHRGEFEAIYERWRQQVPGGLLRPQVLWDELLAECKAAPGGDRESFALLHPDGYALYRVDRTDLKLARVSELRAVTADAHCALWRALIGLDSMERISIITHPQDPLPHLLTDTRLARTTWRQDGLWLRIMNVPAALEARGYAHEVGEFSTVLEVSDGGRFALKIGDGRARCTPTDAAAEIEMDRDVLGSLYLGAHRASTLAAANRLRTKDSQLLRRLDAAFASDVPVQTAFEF

NCC(=O)NCC1OC(OC2C(N)CC(N)C(OC3OC(CO)C(O)C(N)C3O)C2O)C(O)C(O)C1O (stereo not shown) [6′-glycinyl-KAN]
acetylation by Eis_Msm (UV-Vis) [1]: not a substrate; also recorded: almost inactive | acetylation by Eis_Mtb (UV-Vis) [2]: not a substrate; also recorded: almost inactive | acetylation by Eis_Ava (UV-Vis) [3]: not a substrate; also recorded: almost inactive

CN[C@@H]1[C@@H](O[C@H]2O[C@H](CO)[C@@H](N)[C@H](O)[C@H]2O)OC2C[C@@H](N)[C@@H](O[C@H]3[C@H](O)[C@@H](O)[C@H](N)C[C@@H]3N)OC2[C@@H]1O (stereo partly shown) [APR, apramycin]
number of acetylations by Eis_Ava [4]: mono-acetylated | substrate of Eis_Mtb [5]: not be a substrate | number of acetylations by Eis_Msm [6]: Di-acetylation

CC(=O)SCCNC(=O)CCNC(=O)[C@H](O)C(C)(C)COP(=O)(O)OP(=O)(O)OC[C@H]1O[C@@H](n2cnc3c(N)ncnc32)[C@H](O)[C@@H]1OP(=O)(O)O [AcCoA]
acceptance as cosubstrate by Eis_Ava [7]: accepted | acceptance as cosubstrate by Eis_Mtb [8]: efficiently accepting

NC[C@H]1O[C@H](O[C@H]2[C@H](O)[C@@H](O)[C@H](N)C[C@@H]2N)[C@H](N)[C@@H](O)[C@@H]1O [NEA, neamine]
number of acetylations of NEA by Eis_Ava observed by TLC and NMR [9]: di-acetylation | first position acetylated by Eis_Ava ([9]; TLC and NMR): 2′-position | second site modified by Eis_Ava ([9]; TLC and NMR): 1-position | positions sequentially acetylated by Eis_Mtb [5]: 2′-, 6′-, and 1-position | positions sequentially acetylated by Eis_Msm [6]: 2′-, 6′-, and 1-position

NC[C@@H]1O[C@H](O[C@H]2[C@@H](O)[C@H](O[C@@H]3[C@@H](O)[C@H](N)C[C@H](N)[C@H]3O[C@H]3O[C@H](CO)[C@@H](O)[C@H](O)[C@H]3N)O[C@@H]2CO)[C@H](N)[C@@H](O)[C@@H]1O [PAR, paromomycin]
number of acetylations by Eis_Ava [4]: tri-acetylation | number of acetylations by Eis_Mtb [5]: di-acetylation | number of acetylations by Eis_Msm [6]: tri-acetylation | Km [10]: 110 ± 21 µM | kcat [10]: 0.136 ± 0.012 s⁻¹

CN[C@@H]1[C@H](O)[C@H](NC)[C@H]2O[C@@]3(O)C(=O)C[C@@H](C)O[C@H]3O[C@@H]2[C@H]1O [SPT, spectinomycin]
number of acetylations by Eis_Ava [4]: not be substrates

[H]/N=C(/N)N[C@H]1[C@H](O)[C@@H](O)[C@H](O[C@@H]2O[C@@H](C)[C@](O)(C=O)[C@H]2O[C@@H]2O[C@@H](CO)[C@H](O)[C@@H](O)[C@@H]2NC)[C@@H](N/C(N)=N\[H])[C@@H]1O [STR, streptomycin]
number of acetylations by Eis_Ava [4]: not be substrates

[H]/N=C(\N/C(=N/[H])NCCCCCCNC(=N)NC(=N)Nc1ccc(Cl)cc1)Nc1ccc(Cl)cc1 [compound 1, chlorhexidine]
IC50 [11]: 1.85 ± 0.39 µM | IC50 [12]: 20 ± 7 µM | IC50 for Eis_Ava fold higher than against Eis_Msm [13]: 11 fold | IC50 for Eis_Ava fold higher than for Eis_Mtb [13]: 107 fold

C/C=C/C(=O)SCCNC(=O)CCNC(=O)[C@H](O)C(C)(C)COP(=O)(O)OP(=O)(O)OC[C@H]1O[C@@H](n2cnc3c(N)ncnc32)[C@H](O)[C@@H]1OP(=O)(O)O [crotonyl-CoA]
acceptance as cosubstrate by Eis_Mtb [8]: moderately so

CC(C)(COP(=O)(O)OP(=O)(O)OC[C@H]1O[C@@H](n2cnc3c(N)ncnc32)[C@H](O)[C@@H]1OP(=O)(O)O)[C@@H](O)C(=O)NCCC(=O)NCCSC(=O)CC(=O)O [malonyl-CoA]
acceptance as cosubstrate by Eis_Mtb [8]: moderately so

CCC(=O)SCCNC(=O)CCNC(=O)[C@H](O)C(C)(C)COP(=O)(O)OP(=O)(O)OC[C@H]1O[C@@H](n2cnc3c(N)ncnc32)[C@H](O)[C@@H]1OP(=O)(O)O [n-propionyl-CoA]
acceptance as cosubstrate by Eis_Ava [7]: accepted | acceptance as cosubstrate by Eis_Mtb [8]: efficiently accepting

Eis_Ava (Trichormus variabilis ATCC 29413)
Km [14]: 101 ± 16 µM | kcat [14]: 0.106 ± 0.006 s⁻¹ | kcat/Km [14]: 1050 ± 184 M⁻¹ s⁻¹ | Km [15]: 42 ± 9 µM | kcat [15]: 0.352 ± 0.021 s⁻¹ | kcat/Km [15]: 7410 ± 1940 M⁻¹ s⁻¹ | Km [16]: 337 ± 98 µM | kcat [16]: 0.019 ± 0.002 s⁻¹ | kcat/Km [16]: 57 ± 18 M⁻¹ s⁻¹ | Km [17]: 237 ± 36 µM | kcat [17]: 0.183 ± 0.013 s⁻¹ | kcat/Km [17]: 773 ± 132 M⁻¹ s⁻¹

Eis_Msm (Mycolicibacterium smegmatis MC2 155)
Km [18]: 110 ± 14 µM | kcat [18]: 0.148 ± 0.006 s⁻¹ | kcat/Km [18]: 1340 ± 180 M⁻¹ s⁻¹ | Km [19]: 1302 ± 312 µM | kcat [19]: 0.687 ± 0.083 s⁻¹ | kcat/Km [19]: 528 ± 142 M⁻¹ s⁻¹ | Km [20]: 150 ± 43 µM | kcat [20]: 0.019 ± 0.002 s⁻¹ | kcat/Km [20]: 127 ± 39 M⁻¹ s⁻¹ | Km [21]: 738 ± 158 µM | kcat [21]: 0.235 ± 0.033 s⁻¹ | kcat/Km [21]: 318 ± 82 M⁻¹ s⁻¹

Eis_Mtb (Mycobacterium tuberculosis H37Rv)
Km [22]: 1315 ± 492 µM | kcat [22]: 0.699 ± 0.136 s⁻¹ | kcat/Km [22]: 532 ± 224 M⁻¹ s⁻¹

kanamycin A
acetylation by Eis_Msm (UV-Vis) [1]: efficiently gets multi-acetylated | acetylation by Eis_Mtb (UV-Vis) [2]: efficiently gets multi-acetylated | acetylation by Eis_Ava (UV-Vis) [3]: efficiently gets multi-acetylated
